Results taken from article PMC6522510 (Nature Communications, 2019).
Where a name gives a salt, the structure may show the parent alone. Read-outs that look alike come from different tables or passages of the source. Numbered stars: 1 amine (or outer) side, 2 acyl side, 3 side chain; on linkers, the order of the positions; unused ones are H or OH. Square brackets hold non-standard residues; d marks the D form. Peptide text beside a SMILES is read from it. Nle = CCCC[C@H](N)C(=O)O; CO = O=C([*:1])[*:2]

Legend:
Design in all cases: species or system AML cell lines (8); Primary HTS, single concentration about 10 uM, Cell Titer Glo viability; log10 luminescence, per cent inhibition relative to cycloheximide control
Settings in all cases: 72 h, relative to cycloheximide control, log10 luminescence, inhibitor
[1] = tested on: CMK
[2] = tested on: ML-2
[3] = tested on: U937
[4] = tested on: M07e
[5] = tested on: MV4-11
[6] = tested on: MOLM-13
[7] = tested on: CMS
[8] = tested on: CHRF288-11

Structure (SMILES)	CMK %inh ([1]; CMK %inh, 10 µM)	ML-2 %inh ([2]; ML-2 %inh, 10 µM)	U937 %inh ([3]; U937 %inh, 10 µM)	M07e %inh ([4]; M07e %inh, 10 µM)	MV4-11 %inh ([5]; MV4-11 %inh, 10 µM)	MOLM-13 %inh ([6]; MOLM-13 %inh, 10 µM)	CMS %inh ([7]; CMS %inh, 10 µM)	CHRF288-11 %inh ([8]; CHRF288-11 %inh, 10 µM)	CMK %inh [1]	ML-2 %inh [2]	U937 %inh [3]	M07e %inh [4]	MV4-11 %inh [5]	MOLM-13 %inh [6]	CMS %inh [7]	CHRF288-11 %inh [8]
CCCC[C@@H](C=O)NC(=O)[C@H](CC(C)C)NC(=O)OCc1ccccc1 [SJ000755074-2, CALPEPTIN]	-0.8705%	0.3376%	3.349%	2.133%	8.208%	5.31%	2.144%	27.98%	–	–	–	–	–	–	–	–
CNC(=O)[C@H](Cc1c[nH]c2ccccc12)NC(=O)[C@@H](CC(=O)NO)CC(C)C [SJ000755078-1, GM 6001 | ILOMASTAT (GM6001, GALARDIN)]	–	–	–	–	–	–	–	–	-1.76%	-0.512%	9.818%	-0.3296%	1.237%	3.013%	-0.9664%	9.385%
CCCCNC(=O)[C@@H]1Cc2ccccc2N1C(=O)[C@@H](N)CC [SJ000772394-1, BUTABINDIDE OXALATE]	–	–	–	–	–	–	–	–	2.146%	-0.1457%	2.937%	-2.465%	-1.569%	0.241%	0.61%	-4.064%
CC(C)[C@H](NS(=O)(=O)c1ccc(-c2ccc(Br)cc2)cc1)C(=O)O [SJ000772395-1, PD 166793]	–	–	–	–	–	–	–	–	1.088%	-0.8645%	3.907%	-2.219%	-0.00905%	0.2317%	-2.252%	2.843%
CCCC[C@@H](C=O)NC(=O)[C@H](CC(C)C)NC(=O)[C@H](CC(C)C)NC(C)=O [SJ000772397-1, MG 101 | ALLN] (Ac-Leu-Leu-[Nle]-aldehyde)	–	–	–	–	–	–	–	–	126.5%	57.14%	52.66%	121%	82.08%	102.2%	98.27%	140.2%
Cc1ccc(/C=C2\CNC/C(=C\c3ccc(C)cc3)C2=O)cc1 [SJ000772404-1, NSC 632839 HYDROCHLORIDE]	–	–	–	–	–	–	–	–	116.6%	61.57%	84.59%	129.2%	77.36%	99.63%	103.5%	82.45%
N#Cc1ccc(NCCNCC(=O)N2CCC[C@H]2C#N)nc1 [SJ000772405-1, NVP DPP 728 DIHYDROCHLORIDE]	–	–	–	–	–	–	–	–	-0.003306%	-1.409%	-2.969%	-0.0114%	-0.757%	-0.2952%	0.6231%	-4.67%
O=C(O)Cc1cccc2c(=O)c([N+](=O)[O-])c(-c3ccccc3[N+](=O)[O-])oc12 [SJ000772406-1, AMINOPEPTIDASE N INHIBITOR]	–	–	–	–	–	–	–	–	-2.215%	1.312%	-3.753%	-0.1255%	-1.986%	-3.246%	-0.7017%	5.038%
CC(C)[C@H](NC(=O)[C@H](CCCNC(=N)N)NC(=O)N[C@@H](Cc1ccccc1)C(=O)O)C(=O)N[C@H](C=O)CCCNC(=N)N [SJ000772410-1, ANTIPAIN, DIHYDROCHLORIDE] ({Phe-CO}-Arg-Val-Arg-aldehyde)	–	–	–	–	–	–	–	–	-5.865%	0.8211%	-3.748%	-0.5062%	-1.834%	-3.916%	2.317%	4.85%
CNC(=O)[C@@H](NC(=O)[C@H](CC(C)C)[C@H](O)C(=O)NO)C(C)(C)C [SJ000772411-1]	-3.077%	1.691%	2.038%	-0.5084%	-4.036%	2.673%	-1.756%	14.63%	–	–	–	–	–	–	–	–
CNC(=O)[C@@H](NC(=O)[C@H](CC(C)C)[C@H](O)C(=O)NO)C(C)(C)C [SJ000772411-2]	5.663%	2.823%	3.1%	4.087%	3.499%	10.77%	3.256%	28.21%	–	–	–	–	–	–	–	–
COC(=O)[C@H](CC(C)C)NC(=O)[C@@H](O)[C@H](N)Cc1ccccc1 [SJ000772416-1, BESTATIN METHYL ESTER]	–	–	–	–	–	–	–	–	1.43%	3.75%	22.26%	3.275%	8.922%	-1.654%	2.851%	5.118%
CC(C)[C@@H]1C(=O)N(S(C)(=O)=O)[C@@H]2CCN(C(=O)/C=C/CN3CCCCC3)[C@H]21 [SJ000772418-1, GW 311616 HYDROCHLORIDE]	–	–	–	–	–	–	–	–	-2.728%	0.5681%	-1.402%	1.212%	3.043%	-2.354%	4.399%	12.76%
C=CCNC(=O)c1cc([N+](=O)[O-])cc2c(=O)[nH]c(Nc3ccc(Cl)c(Cl)c3)nc12 [SJ000772422-1, AZ 10417808]	–	–	–	–	–	–	–	–	-3.629%	0.702%	-1.321%	3.044%	3.564%	0.5205%	0.1501%	0.7864%
COC[C@@H](NC(=O)[C@@H](NC(=O)[C@H](CCCc1ccc(-c2ccccc2)c(C)c1)CC(=O)O)C(C)(C)C)c1ccccc1 [SJ000772423-1, UK 370106]	–	–	–	–	–	–	–	–	-0.5196%	0.2215%	2.263%	2.4%	2.629%	2.493%	4.79%	6.021%
NC(N)=NCCS[C@@H](CC(=O)O)C(=O)O [SJ000772425-1, GEMSA]	–	–	–	–	–	–	–	–	-1.464%	0.5506%	0.2934%	1.501%	3.627%	0.138%	-0.9686%	-3.397%
COc1cc(C(C)C)c2c(c1)S(=O)(=O)N(COc1cc(=O)n3cccc(OCCN4CCCCC4)c3n1)C2=O [SJ000772427-1, SSR 69071]	–	–	–	–	–	–	–	–	0.212%	-0.6502%	2.526%	1.75%	4.165%	1.802%	3.665%	-3.004%
CC(C)C[C@H](N)[C@](O)(Cc1cnc[nH]1)C(=O)O [SJ000772431-1, LEUHISTIN]	–	–	–	–	–	–	–	–	-1.024%	5.093%	2.882%	1.038%	3.279%	0.702%	1.294%	4.998%
O=C(O)C(Cc1ccc2c(c1)oc1ccccc12)NCP(=O)(O)O (stereo not shown) [SJ000772433-1, CGS 35066]	–	–	–	–	–	–	–	–	-1.634%	5.201%	0.4141%	2.079%	3.69%	2.239%	-0.6949%	0.3778%
C[C@H](NC(=O)Cc1cc(F)cc(F)c1)C(=O)N[C@H](C(=O)OC(C)(C)C)c1ccccc1 [SJ000772434-1, DAPT | DAPT (GSI-IX)]	–	–	–	–	–	–	–	–	-0.675%	5.016%	0.2025%	1.132%	5.48%	2.225%	0.2641%	2.669%
